{
  "source": "ChEMBL document CHEMBL4265899",
  "about": "“Trisubstituted thiazoles as potent and selective inhibitors of Plasmodium falciparum protein kinase G (PfPKG)” (Bioorg Med Chem Lett, 2018)",
  "key": {"[1]": {"target": "Dual specificity tyrosine-phosphorylation-regulated kinase 1A (Homo sapiens) (UniProt Q13627)", "assay": "Inhibition of human DYRK1A at 100 nM"}, "[2]": {"target": "Serine/threonine-protein kinase Nek6 (Homo sapiens) (UniProt Q9HC98)", "sequence (Q9HC98 whole entry)": "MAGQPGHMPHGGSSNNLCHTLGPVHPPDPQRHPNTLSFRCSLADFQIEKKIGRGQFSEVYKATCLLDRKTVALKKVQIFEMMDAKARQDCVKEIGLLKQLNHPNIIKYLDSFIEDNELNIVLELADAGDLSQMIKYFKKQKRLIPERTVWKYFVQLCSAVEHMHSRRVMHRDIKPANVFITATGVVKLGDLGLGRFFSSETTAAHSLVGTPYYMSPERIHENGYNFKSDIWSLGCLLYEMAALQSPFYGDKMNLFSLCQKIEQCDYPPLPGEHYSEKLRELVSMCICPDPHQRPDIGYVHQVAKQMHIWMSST", "assay": "Inhibition of human NEK6 at 100 nM"}, "[3]": {"target": "T1, Serine/threonine-protein kinase D1 (Homo sapiens) (UniProt Q15139)", "T1 sequence (whole entry)": "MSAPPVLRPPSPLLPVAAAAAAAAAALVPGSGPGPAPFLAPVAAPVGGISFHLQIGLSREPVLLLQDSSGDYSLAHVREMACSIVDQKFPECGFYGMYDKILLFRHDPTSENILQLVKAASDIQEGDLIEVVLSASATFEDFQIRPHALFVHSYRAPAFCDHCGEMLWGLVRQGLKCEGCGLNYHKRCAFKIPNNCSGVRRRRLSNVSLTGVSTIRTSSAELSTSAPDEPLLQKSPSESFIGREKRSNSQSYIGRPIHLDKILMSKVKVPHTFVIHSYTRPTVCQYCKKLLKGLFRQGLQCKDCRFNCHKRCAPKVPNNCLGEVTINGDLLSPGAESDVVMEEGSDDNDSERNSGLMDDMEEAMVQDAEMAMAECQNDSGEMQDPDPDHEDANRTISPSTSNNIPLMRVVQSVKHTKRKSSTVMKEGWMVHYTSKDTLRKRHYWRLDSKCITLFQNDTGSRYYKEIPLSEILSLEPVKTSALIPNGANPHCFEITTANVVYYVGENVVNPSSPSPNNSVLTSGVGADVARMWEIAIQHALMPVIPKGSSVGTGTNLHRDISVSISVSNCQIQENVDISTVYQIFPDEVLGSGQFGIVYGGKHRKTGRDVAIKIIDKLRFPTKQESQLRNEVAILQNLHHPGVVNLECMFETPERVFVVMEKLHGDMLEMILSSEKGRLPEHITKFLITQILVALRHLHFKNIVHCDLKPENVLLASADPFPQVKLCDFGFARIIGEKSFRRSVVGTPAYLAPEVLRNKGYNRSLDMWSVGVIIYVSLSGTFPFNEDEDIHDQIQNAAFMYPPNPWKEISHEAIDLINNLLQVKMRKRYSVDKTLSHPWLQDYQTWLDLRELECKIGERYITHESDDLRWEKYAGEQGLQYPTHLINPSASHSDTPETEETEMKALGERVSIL", "assay": "Inhibition of human PKD1 at 100 nM"}, "[4]": {"target": "Serine/threonine-protein kinase 3 (Homo sapiens) (UniProt Q13188)", "assay": "Inhibition of human MST2 at 100 nM"}, "[5]": {"target": "Insulin-like growth factor 1 receptor (Homo sapiens) (UniProt P08069)", "sequence (P08069 31-736 limits assumed)": "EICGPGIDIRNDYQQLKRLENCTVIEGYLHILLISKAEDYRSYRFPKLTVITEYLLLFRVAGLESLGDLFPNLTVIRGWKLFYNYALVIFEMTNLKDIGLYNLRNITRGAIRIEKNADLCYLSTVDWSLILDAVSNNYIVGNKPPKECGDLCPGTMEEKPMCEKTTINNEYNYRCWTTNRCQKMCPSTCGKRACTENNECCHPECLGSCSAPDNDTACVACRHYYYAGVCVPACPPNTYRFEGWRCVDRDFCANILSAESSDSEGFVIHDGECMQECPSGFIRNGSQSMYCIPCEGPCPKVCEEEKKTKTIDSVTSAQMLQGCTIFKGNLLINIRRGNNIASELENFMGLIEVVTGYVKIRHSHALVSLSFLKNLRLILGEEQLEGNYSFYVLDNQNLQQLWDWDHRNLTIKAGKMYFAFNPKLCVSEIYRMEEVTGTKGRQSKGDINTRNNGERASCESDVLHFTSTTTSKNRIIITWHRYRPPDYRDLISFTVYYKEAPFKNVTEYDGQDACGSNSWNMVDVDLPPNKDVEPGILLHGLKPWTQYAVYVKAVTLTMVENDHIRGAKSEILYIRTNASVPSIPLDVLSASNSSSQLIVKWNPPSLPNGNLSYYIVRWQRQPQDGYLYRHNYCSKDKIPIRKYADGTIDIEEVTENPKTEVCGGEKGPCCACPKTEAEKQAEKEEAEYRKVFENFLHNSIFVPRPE", "sequence (P08069 741-1367 limits assumed)": "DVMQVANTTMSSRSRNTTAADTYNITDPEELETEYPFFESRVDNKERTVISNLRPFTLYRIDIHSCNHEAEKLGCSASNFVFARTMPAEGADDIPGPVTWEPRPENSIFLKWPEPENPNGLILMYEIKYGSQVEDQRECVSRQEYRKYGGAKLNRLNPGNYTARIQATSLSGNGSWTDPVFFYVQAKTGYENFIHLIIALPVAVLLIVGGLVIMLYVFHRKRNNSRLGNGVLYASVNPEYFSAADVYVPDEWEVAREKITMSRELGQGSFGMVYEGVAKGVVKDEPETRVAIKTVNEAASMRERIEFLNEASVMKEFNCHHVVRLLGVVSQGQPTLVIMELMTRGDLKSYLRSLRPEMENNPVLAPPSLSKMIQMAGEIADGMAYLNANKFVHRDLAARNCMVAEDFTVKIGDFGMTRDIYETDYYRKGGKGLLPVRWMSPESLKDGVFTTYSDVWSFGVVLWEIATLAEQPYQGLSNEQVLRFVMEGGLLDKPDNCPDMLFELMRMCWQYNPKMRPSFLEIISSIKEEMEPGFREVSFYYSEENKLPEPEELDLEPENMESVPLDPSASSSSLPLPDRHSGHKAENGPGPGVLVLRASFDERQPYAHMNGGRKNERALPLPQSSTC", "assay": "Inhibition of human IGF1R at 100 nM"}, "[6]": {"target": "Dual specificity mitogen-activated protein kinase kinase 1 (Homo sapiens) (UniProt Q02750)", "sequence (Q02750 whole entry)": "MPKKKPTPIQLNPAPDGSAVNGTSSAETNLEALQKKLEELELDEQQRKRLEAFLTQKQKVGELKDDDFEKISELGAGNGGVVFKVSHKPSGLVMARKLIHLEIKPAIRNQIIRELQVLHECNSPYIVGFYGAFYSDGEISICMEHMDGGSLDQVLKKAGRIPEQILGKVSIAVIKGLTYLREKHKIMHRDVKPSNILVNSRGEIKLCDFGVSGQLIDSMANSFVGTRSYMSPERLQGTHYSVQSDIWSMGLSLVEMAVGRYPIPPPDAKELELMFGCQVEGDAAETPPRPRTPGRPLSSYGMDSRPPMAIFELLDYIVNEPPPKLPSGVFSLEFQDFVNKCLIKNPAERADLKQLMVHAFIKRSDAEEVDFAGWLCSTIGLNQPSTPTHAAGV", "assay": "Inhibition of human MKK1 at 100 nM"}, "[7]": {"target": "Misshapen-like kinase 1 (Homo sapiens) (UniProt Q8N4C8)", "sequence (Q8N4C8 whole entry, looked up)": "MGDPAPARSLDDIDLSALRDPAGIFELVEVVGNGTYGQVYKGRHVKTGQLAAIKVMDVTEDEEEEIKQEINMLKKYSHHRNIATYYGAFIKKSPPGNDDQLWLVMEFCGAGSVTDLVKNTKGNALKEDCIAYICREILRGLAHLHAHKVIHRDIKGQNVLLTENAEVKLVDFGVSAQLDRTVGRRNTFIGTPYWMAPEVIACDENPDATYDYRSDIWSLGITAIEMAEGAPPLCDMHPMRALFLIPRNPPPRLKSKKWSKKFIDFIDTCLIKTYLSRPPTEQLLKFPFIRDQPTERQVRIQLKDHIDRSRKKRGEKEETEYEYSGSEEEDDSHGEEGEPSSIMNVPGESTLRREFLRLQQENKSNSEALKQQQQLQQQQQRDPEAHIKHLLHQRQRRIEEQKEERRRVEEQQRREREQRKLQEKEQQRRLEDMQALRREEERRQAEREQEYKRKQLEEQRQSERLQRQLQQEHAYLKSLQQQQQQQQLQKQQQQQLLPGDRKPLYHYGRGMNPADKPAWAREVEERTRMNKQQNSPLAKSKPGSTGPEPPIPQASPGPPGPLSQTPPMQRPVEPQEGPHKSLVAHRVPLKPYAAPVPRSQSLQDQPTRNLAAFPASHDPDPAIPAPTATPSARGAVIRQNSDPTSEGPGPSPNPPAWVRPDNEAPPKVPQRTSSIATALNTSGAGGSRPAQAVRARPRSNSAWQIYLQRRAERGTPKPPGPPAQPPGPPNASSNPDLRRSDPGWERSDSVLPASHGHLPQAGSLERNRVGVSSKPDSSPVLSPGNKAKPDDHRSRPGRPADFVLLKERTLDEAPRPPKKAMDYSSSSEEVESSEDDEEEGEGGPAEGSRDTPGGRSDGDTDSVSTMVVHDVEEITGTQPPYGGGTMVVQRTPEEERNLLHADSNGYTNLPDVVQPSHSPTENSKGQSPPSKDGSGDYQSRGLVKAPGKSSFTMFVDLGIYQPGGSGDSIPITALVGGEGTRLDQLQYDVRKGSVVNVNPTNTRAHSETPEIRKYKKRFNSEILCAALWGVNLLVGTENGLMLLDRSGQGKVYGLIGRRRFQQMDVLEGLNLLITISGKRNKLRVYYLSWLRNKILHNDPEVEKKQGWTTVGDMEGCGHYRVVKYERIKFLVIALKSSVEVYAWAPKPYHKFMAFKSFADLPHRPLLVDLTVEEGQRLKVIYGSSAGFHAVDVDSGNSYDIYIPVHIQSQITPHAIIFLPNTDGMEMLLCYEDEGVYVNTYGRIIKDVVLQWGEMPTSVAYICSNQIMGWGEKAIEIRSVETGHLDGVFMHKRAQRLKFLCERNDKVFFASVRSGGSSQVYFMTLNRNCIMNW", "assay": "Inhibition of human MINK1 at 100 nM"}, "[8]": {"assay": "Permeability of the compound by PAMPA"}, "[9]": {"target": "High affinity nerve growth factor receptor (Homo sapiens) (UniProt P04629)", "sequence (P04629 33-796 limits assumed)": "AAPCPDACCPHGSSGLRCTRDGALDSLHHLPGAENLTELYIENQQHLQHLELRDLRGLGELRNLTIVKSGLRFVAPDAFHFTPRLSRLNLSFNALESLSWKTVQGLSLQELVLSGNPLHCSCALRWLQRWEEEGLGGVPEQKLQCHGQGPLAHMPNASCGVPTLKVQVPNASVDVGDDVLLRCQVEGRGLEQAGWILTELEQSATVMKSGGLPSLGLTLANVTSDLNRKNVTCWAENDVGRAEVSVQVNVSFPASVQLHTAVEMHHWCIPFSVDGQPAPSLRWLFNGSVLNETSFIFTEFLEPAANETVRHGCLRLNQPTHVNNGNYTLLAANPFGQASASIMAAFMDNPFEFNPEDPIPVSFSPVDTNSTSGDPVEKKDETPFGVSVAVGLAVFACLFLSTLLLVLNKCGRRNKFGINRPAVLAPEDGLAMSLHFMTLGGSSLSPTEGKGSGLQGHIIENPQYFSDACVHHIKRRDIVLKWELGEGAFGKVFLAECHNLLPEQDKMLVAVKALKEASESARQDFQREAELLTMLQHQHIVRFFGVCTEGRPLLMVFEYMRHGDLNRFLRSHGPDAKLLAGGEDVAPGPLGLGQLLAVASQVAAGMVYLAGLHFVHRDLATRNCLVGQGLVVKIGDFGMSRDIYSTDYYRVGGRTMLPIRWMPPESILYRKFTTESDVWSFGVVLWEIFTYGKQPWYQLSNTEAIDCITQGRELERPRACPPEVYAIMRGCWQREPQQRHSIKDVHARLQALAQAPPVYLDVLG", "assay": "Inhibition of human TrkA at 100 nM"}, "[10]": {"target": "Eukaryotic elongation factor 2 kinase (Homo sapiens) (UniProt O00418)", "assay": "Inhibition of human EF2K at 100 nM"}, "[11]": {"target": "Protein kinase C alpha type (Homo sapiens) (UniProt P17252)", "assay": "Inhibition of human PKCalpha at 100 nM"}, "[12]": {"target": "cGMP-dependent protein kinase (Plasmodium falciparum, UniProt W7JX98)", "assay": "Inhibition of Plasmodium falciparum protein kinase G"}, "[13]": {"target": "AMP-activated protein kinase, AMPK (Homo sapiens) (UniProt P54646+O43741+P54619+Q9UGJ0+Q9Y478+Q13131+Q9UGI9)", "assay": "Inhibition of human AMPK at 100 nM", "format": "protein-complex assay"}},
  "data": [
    {"smiles": "CN1CCC(c2nc(-c3ccc(F)c(NS(C)(=O)=O)c3)c(-c3ccnc(NCC4CC4)n3)s2)CC1", "values": [
      {"measurement": "inhibition", "setting": "[1]", "value": "< 70", "unit": "%"},
      {"measurement": "inhibition", "setting": "[2]", "value": "< 70", "unit": "%"},
      {"measurement": "inhibition", "setting": "[3]", "value": "< 70", "unit": "%"},
      {"measurement": "inhibition", "setting": "[4]", "value": "< 70", "unit": "%"},
      {"measurement": "inhibition", "setting": "[5]", "value": "< 70", "unit": "%"},
      {"measurement": "inhibition", "setting": "[6]", "value": "< 70", "unit": "%"},
      {"measurement": "inhibition", "setting": "[7]", "value": "< 70", "unit": "%"},
      {"measurement": "Papp", "setting": "[8]", "value": 5.7, "unit": "×10⁻⁶ cm/s"},
      {"measurement": "inhibition", "setting": "[9]", "value": "< 70", "unit": "%"},
      {"measurement": "inhibition", "setting": "[10]", "value": "< 70", "unit": "%"},
      {"measurement": "inhibition", "setting": "[11]", "value": "< 70", "unit": "%"}
    ]},
    {"smiles": "CN1CCC(c2nc(-c3cccc(S(C)(=O)=O)c3)c(-c3ccnc(Nc4ccc(N5CCNCC5)cc4)n3)s2)CC1", "values": [
      {"measurement": "inhibition", "setting": "[1]", "value": "< 70", "unit": "%"},
      {"measurement": "inhibition", "setting": "[2]", "value": "< 70", "unit": "%"},
      {"measurement": "inhibition", "setting": "[3]", "value": "< 70", "unit": "%"},
      {"measurement": "inhibition", "setting": "[4]", "value": "< 70", "unit": "%"},
      {"measurement": "inhibition", "setting": "[5]", "value": "< 70", "unit": "%"},
      {"measurement": "inhibition", "setting": "[6]", "value": "< 70", "unit": "%"},
      {"measurement": "inhibition", "setting": "[7]", "value": "< 70", "unit": "%"},
      {"measurement": "inhibition", "setting": "[9]", "value": "< 70", "unit": "%"},
      {"measurement": "inhibition", "setting": "[10]", "value": "< 70", "unit": "%"},
      {"measurement": "IC50", "setting": "[12]", "value": 0.9, "unit": "nM"},
      {"measurement": "inhibition", "setting": "[11]", "value": "< 70", "unit": "%"},
      {"measurement": "inhibition", "setting": "[13]", "value": "< 70", "unit": "%"}
    ]}
  ]
}
